Data published in patent US11072619B2, “Pyrazole[1,5-a] pyrimidine derivatives as kinase JAK inhibitors” (CELON PHARMA S.A., priority 2017, dated 2021).

How the values were obtained:
Recombinant kinase JAK2 = Recombinant kinase JAK2 (Homo sapiens (Human), UniProt O60674); experiment: In vitro JAK kinase inhibition assay (ADP-Glo), JAK2; type: biochemical; details: 30 μM ATP, peptide IGF-1Rtide, averaged
Description: (§1) In Vitro JAK Kinase Inhibition Assay
(§2) The effects of the compounds of the invention were analysed in vitro using kinase JAK inhibition assay described below.
Tested compounds were dissolved in 100% DMSO, and obtained stock solutions were serially diluted in the reaction buffer (50 mM Tris pH 7.5, 10 mM MgCl2, 0.25 mM EGTA, 0.1 mM Na3VO4, 0.01% Triton X-100, 2.5 mM DTT). Recombinant kinases JAK1 (ProQinase), JAK2, or JAK3 (Carna Biosciences) were diluted in the dilution buffer (50 mM Tris-HCl pH 7.5, 150 mM NaCl, 10% glycerol, 0.05% Triton X-100, 1 mM DTT) to the final concentration 3 ng/μL (JAK1), 0.1 ng/μL (JAK2), or 0.2 ng/μL (JAK3). 5 μL of obtained solution of the compounds and 5 μL of the solution of respective kinases were added to the well of a 96-well plate. To initiate interaction between tested compounds and an enzyme, the plate was incubated for 10 minutes at 25° C. in a Plate-Thermo-Shaker with orbital stirring at 400 rpm. Wells of a negative control contained all reagents as mentioned above with the exception of tested compounds and kinase, and wells of a positive controls contained all reagents as mentioned above with the exception of tested compounds. […] Then the plate was incubated for 1 hour at 25° C. in a Plate-Thermo-Shaker, with orbital stirring at 400 rpm. Detection of ADP formed in the enzymatic reaction was then performed using ADP-Glo Kinase Assay kit (Promega). For this purpose, to the well of the 96-well plate 25 μL of ADP-Glo Reagent were added, and the plate was incubated for 40 minutes at 25° C. in a Plate-Thermo-Shaker with orbital stirring at 400 rpm. Then to the well of the 96-well plate 50 μL of Kinase Detection Reagent were added and the plate was incubated for 30 minutes at 25° C. in a Plate-Thermo-Shaker with orbital stirring at 400 rpm. After incubation, luminescence intensity was measured using Victor×Light luminometer (Perkin Elmer, Inc.).
(§3) On the basis of luminescence measurement in wells containing tested compounds at various concentrations and in control wells, IC50 values were determined. These values were determined with Graph Pad software v. 5.03, by fitting points of the curve using non-linear regression method. Each compound was tested in at least 6 repetitions (6 wells) on two 96-well plates, using at least 3 wells of each control.

TF-1 cells = TF-1 cells viability in vitro in the presence of IL-4 (JAK1/JAK3 activation); type: cell-based; details: for IC50: Homo sapiens, TF-1, 20 ng/mL IL-4, 72 hours, ATPlite, read-out: JAK1,3 IL4 (EC50, inhibition of viability of TF-1 cells); for JAK2/JAK1,3 Ratio: ratio of TF-1 viability EC50 with IL3 to EC50 with IL4
Description: Assay for TF-1 Cells Viability In Vitro
The effects of the activity of the compounds of the invention were tested in vitro using cells viability assay described below.
Tested compounds were dissolved in 100% DMSO, and obtained stock solutions were serially diluted in OptiMEM medium (Reduced Serum Medium-Thermo Fisher Scientific). TF-1 cells (DSMZ no.: ACC 334) in culture medium (80% RPMI 1640+20% FBS) ad in the presence of 5 ng/mL IL-3 or 20 ng/mL IL-4 were deposited on 96-well plates in the volume of 90 μl per well, 10 thousands of cells per well. To a well of the 96-well plate 10 μL of the prepared 10× stock solutions of the compounds. Cells on 96-well plates were incubated with the compounds for 72 hours at 37° C., 5% CO2. Subsequently, viability of the cells was measured using ATPlite kit (Perkin Elmer). For this purpose, 50 μL of lysis buffer (mammalian cell lysis solution) were added to a well of the 96-well plate and the plate was incubated for 10 minutes at 25° C. in a plate thermo-shaker with orbital stirring at 600 rpm. Then to a well of the 96-well plate 50 μL of substrate (substrate solution) were added and incubated for 15 minutes at in dark, in a plate thermo-shaker with orbital stirring at 600 rpm. After incubation time, luminescence intensity in a well was measured using Victor×Light luminometer (Perkin Elmer, Inc.).
as §3, with “luminescence intensity measurements” for “luminescence measurement”, “in well” for “in wells”, “control wells EC50” for “control wells, IC50”

Recombinant kinase JAK1 = Recombinant kinase JAK1 (Homo sapiens (Human), UniProt P23458); experiment: In vitro JAK kinase inhibition assay (ADP-Glo), JAK1; type: biochemical; details: 30 μM ATP, peptide IRS-1, averaged
Chain of Recombinant kinase JAK1 (P23458 whole entry): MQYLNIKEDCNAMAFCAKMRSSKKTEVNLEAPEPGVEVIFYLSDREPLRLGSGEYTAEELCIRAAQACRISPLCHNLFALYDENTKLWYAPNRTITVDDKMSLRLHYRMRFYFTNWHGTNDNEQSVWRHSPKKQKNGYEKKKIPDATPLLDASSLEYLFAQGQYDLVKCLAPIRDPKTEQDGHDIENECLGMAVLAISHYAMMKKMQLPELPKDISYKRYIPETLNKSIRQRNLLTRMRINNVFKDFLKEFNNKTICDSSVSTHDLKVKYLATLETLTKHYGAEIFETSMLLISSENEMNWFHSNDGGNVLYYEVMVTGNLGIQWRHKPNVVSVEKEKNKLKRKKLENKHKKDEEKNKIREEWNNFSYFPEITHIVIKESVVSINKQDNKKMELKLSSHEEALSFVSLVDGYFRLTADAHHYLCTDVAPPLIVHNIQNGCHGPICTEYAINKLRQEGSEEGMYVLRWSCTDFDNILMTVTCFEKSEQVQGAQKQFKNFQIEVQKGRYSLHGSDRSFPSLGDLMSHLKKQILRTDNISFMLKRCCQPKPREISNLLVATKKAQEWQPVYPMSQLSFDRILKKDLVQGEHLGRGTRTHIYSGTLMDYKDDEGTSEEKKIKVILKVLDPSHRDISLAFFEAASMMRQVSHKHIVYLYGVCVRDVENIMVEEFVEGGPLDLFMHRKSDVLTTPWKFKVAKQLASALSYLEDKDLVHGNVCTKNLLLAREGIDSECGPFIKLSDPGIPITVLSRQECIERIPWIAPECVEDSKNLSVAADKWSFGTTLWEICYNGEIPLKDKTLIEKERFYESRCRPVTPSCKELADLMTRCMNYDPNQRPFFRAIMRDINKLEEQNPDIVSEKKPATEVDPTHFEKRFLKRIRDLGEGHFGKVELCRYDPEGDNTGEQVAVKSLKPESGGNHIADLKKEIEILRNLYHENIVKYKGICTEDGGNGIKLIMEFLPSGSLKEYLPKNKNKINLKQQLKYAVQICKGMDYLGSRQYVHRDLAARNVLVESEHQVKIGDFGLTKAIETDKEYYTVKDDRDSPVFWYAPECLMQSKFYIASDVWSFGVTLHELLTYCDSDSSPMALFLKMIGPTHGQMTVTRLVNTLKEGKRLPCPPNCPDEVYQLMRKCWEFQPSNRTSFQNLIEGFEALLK
Description: as §1, §2
Tested compounds were dissolved in 100% DMSO, and obtained stock solutions were serially diluted in the reaction buffer (50 mM Tris pH 7.5, 10 mM MgCl2, 0.25 mM EGTA, 0.1 mM Na3VO4, 0.01% Triton X-100, 2.5 mM DTT). Recombinant kinases JAK1 (ProQinase), JAK2, or JAK3 (Carna Biosciences) were diluted in the dilution buffer (50 mM Tris-HCl pH 7.5, 150 mM NaCl, 10% glycerol, 0.05% Triton X-100, 1 mM DTT) to the final concentration 3 ng/μL (JAK1), 0.1 ng/μL (JAK2), or 0.2 ng/μL (JAK3). 5 μL of obtained solution of the compounds and 5 μL of the solution of respective kinases were added to the well of a 96-well plate. To initiate interaction between tested compounds and an enzyme, the plate was incubated for 10 minutes at 25° C. in a Plate-Thermo-Shaker with orbital stirring at 400 rpm. Wells of a negative control contained all reagents as mentioned above with the exception of tested compounds and kinase, and wells of a positive controls contained all reagents as mentioned above with the exception of tested compounds. Enzymatic reaction was initiated by the addition of 15 μL of the following solution: 5× concentrated reaction buffer (50 mM Tris pH 7.5, 10 mM MgCl2, 0.25 mM EGTA, 0.1 mM Na3VO4, 0.01% Triton X-100, 2.5 mM DTT), water, 30 μM ATP and for particular kinases: JAK1—60 μM peptide IRS-1 (Enzo), JAK2 or JAK3—10 μM peptide IGF-1Rtide (Lipopharm). Then the plate was incubated for 1 hour at 25° C. in a Plate-Thermo-Shaker, with orbital stirring at 400 rpm. Detection of ADP formed in the enzymatic reaction was then performed using ADP-Glo Kinase Assay kit (Promega). For this purpose, to the well of the 96-well plate 25 μL of ADP-Glo Reagent were added, and the plate was incubated for 40 minutes at 25° C. in a Plate-Thermo-Shaker with orbital stirring at 400 rpm. Then to the well of the 96-well plate 50 μL of Kinase Detection Reagent were added and the plate was incubated for 30 minutes at 25° C. in a Plate-Thermo-Shaker with orbital stirring at 400 rpm. After incubation, luminescence intensity was measured using Victor×Light luminometer (Perkin Elmer, Inc.).
as §3
Averaged results of kinases JAK inhibition activity for selected compounds of the present invention are presented below in Table 1.

Chain of Recombinant kinase JAK2 (O60674 whole entry): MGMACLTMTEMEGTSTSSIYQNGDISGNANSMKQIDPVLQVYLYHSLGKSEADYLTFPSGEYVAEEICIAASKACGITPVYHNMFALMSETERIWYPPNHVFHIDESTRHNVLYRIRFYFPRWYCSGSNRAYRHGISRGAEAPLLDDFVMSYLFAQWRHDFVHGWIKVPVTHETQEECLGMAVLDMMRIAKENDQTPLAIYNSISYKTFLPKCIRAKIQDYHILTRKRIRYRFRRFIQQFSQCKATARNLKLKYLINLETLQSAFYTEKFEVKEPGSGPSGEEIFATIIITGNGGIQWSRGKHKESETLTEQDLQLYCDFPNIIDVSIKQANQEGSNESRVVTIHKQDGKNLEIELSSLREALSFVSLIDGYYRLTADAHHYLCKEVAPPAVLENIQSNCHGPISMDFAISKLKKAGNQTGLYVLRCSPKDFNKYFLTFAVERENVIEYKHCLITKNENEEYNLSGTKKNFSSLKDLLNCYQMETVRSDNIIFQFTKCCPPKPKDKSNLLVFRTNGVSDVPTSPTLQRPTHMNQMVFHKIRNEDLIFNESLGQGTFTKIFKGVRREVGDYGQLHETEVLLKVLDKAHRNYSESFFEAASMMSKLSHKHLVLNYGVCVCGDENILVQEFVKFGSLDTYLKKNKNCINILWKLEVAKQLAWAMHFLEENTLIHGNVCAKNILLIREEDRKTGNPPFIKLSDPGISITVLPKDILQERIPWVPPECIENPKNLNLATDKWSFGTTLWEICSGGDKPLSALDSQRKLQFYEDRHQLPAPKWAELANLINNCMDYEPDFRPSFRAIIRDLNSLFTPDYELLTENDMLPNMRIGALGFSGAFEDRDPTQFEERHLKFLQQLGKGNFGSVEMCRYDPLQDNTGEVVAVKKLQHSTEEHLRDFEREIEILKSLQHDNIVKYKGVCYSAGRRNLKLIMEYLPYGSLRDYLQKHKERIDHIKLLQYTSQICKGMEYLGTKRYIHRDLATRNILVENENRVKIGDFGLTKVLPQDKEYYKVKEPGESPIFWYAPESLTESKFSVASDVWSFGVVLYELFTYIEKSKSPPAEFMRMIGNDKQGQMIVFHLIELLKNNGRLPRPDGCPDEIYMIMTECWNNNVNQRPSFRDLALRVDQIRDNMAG

SMILES	IC50 (Recombinant kinase JAK2) [nM]	IC50 (TF-1 cells) [nM]	JAK2/JAK1,3 Ratio (TF-1 cells)	IC50 (Recombinant kinase JAK1) [nM]
COc1cccc(-c2cc3ncc(C(N)=O)c(N[C@@H]4CCN(c5ccc(C#N)nn5)CC4(C)C)n3n2)n1 [Example 11, (R)-7-((1-(6-Cyanopyridazin-3-yl)-3,3-dimethylpiperidin-4-yl)amino)-2-(6-methoxy-pyridin-2-yl)pyrazolo[1,5-a]pyrimidine-6-carboxamide]	1.18	61.1	7.4	0.05
Cc1cc(-c2cc3ncc(C(N)=O)c(N[C@@H]4CCN(c5ccc(C#N)nn5)CC4(C)C)n3n2)ccn1 [Example 12, (R)-7-((1-(6-Cyanopyridazin-3-yl)-3,3-dimethylpiperidin-4-yl)amino)-2-(2-methyl-pyridin-4-yl)pyrazolo[1,5-a]pyrimidine-6-carboxamide]	5.05	31.1	11.6	0.51
COc1ccc(-c2cc3ncc(C(N)=O)c(N[C@@H]4CCN(c5ccc(C#N)nn5)CC4(C)C)n3n2)cn1 [Example 4, (R)-7-((1-(6-Cyanopyridazin-3-yl)-3,3-dimethylpiperidin-4-yl)amino)-2-(6-methoxy-pyridin-3-yl)pyrazolo[1,5-a]pyrimidine-6-carboxamide]	27.7	69	10.3	2.67
CC1(C)CN(c2ccc(C#N)nn2)CC[C@H]1Nc1c(C(N)=O)cnc2cc(-c3ccc(N4CCOCC4)nc3)nn12 [Example 7, (R)-7-((1-(6-Cyanopyridazin-3-yl)-3,3-dimethylpiperidin-4-yl)amino)-2-(6-morpholinopyridin-3-yl)pyrazolo[1,5-a]pyrimidine-6-carboxamide]	3.4	36.1	7.8	0.75
